System: KRAS utr-2 (RNA, G4) GGAAGGCGGCGG
Test: UV-vis titration (Soret band)
Details: 100 mM KCl; 50 mM Tris-HCl pH 7.4 (from methods); 6 μM C14 titrated with G4-RNA; simple binding equation

CCCCCCCCCCCCCC[n+]1ccc(-c2c3nc(c(-c4cc[n+](C)cc4)c4ccc([nH]4)c(-c4cc[n+](C)cc4)c4nc(c(-c5cc[n+](C)cc5)c5ccc2[nH]5)C=C4)C=C3)cc1
KD: ~ 5 × 10^-7 M

— PMC4021972 (2014)
